# Measured values published in paper PMC3914206.
# What was measured:
# Assay type in all cases: binding
# Conditions in all cases: Compound Concentration 10 µM
# panel of 442 kinases [1] = molecular target: T1, panel of 442 kinases (Homo sapiens, UniProt P42338)
# T1 construct: purchased KINOMEscan
# Description: (§1) We assessed the selectivity of members of this scaffold using the KINOMEscan methodology across a near comprehensive panel of 442 kinases [[18,27]].
# panel of 442 kinases [2] = molecular target: T2, panel of 442 kinases (Homo sapiens, UniProt P42345)
# T2 construct: purchased KINOMEscan
# Description: as §1
# panel of 442 kinases [3] = molecular target: T3, panel of 442 kinases (Homo sapiens, UniProt Q9HCP0)
# T3 construct: purchased KINOMEscan
# T3 sequence (Q9HCP0 whole entry): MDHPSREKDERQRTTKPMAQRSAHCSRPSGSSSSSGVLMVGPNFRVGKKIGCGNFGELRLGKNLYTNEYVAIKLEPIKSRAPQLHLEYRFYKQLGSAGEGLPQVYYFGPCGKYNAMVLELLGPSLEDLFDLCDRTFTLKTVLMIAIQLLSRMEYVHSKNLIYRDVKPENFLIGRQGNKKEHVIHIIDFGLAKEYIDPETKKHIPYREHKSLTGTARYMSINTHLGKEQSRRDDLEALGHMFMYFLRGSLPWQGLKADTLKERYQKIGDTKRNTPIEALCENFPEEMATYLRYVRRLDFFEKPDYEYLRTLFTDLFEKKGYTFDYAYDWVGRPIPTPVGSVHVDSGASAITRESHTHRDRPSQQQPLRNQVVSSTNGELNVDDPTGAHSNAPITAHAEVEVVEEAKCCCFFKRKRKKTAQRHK
# Description: as §1
# T1 sequence (P42338 whole entry): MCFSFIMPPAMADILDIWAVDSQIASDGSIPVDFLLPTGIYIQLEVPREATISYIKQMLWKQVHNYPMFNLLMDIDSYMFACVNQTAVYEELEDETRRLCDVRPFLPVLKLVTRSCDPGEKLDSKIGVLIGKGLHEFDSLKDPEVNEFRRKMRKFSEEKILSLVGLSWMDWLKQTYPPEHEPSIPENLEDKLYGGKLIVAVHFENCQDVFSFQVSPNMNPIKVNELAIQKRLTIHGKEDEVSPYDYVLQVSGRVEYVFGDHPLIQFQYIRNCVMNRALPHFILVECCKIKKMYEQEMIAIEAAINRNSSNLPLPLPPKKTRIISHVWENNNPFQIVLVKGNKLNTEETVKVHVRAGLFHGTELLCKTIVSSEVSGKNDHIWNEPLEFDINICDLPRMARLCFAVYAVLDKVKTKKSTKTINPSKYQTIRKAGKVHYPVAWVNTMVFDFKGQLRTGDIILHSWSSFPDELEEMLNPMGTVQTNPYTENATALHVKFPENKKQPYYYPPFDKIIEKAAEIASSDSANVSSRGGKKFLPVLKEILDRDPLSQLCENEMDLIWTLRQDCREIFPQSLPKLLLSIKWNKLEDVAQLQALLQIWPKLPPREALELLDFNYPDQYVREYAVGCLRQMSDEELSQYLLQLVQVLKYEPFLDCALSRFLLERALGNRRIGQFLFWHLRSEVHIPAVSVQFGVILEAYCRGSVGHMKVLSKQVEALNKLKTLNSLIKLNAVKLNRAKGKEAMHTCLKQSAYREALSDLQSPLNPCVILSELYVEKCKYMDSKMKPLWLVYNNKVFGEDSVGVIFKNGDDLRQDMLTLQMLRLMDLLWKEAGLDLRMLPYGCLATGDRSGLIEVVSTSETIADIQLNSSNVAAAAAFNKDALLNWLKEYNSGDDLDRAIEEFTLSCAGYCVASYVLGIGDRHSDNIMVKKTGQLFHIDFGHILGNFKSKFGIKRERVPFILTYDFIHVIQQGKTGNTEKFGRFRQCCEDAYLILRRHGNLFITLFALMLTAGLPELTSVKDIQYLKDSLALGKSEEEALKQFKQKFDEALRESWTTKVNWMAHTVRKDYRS
SMILES,KINOMEscan: PIK3CB (panel of 442 kinases [1]),KINOMEscan: MTOR (panel of 442 kinases [2]),KINOMEscan: CSNK1G1 (panel of 442 kinases [3])
COc1cc(C(=O)N2CCC(N3CCN(C)CC3)CC2)ccc1Nc1ncc2c(n1)N1CCc3cccc(c31)C(=O)N2C [Compound 24],71,–,–
CCOc1cc(C(=O)N2CCC(N3CCN(C)CC3)CC2)ccc1Nc1ncc2c(n1)N(C1CCCC1)c1ccccc1C(=O)N2C [Compound 26],100,100,98
"COc1cc(C(=O)N2CCC(N3CCN(C)CC3)CC2)ccc1Nc1ncc2c(n1)N(C1CCCC1)c1ccccc1C(=O)N2C [Compound 25, 11-cyclopentyl-2-((2-methoxy-4-(4-(4-methylpiperazin-1-yl)piperidine-1-carbonyl)phenyl)amino)-5-methyl-5H-benzo[e]pyrimido[5,4-b][1,4]diazepin-6(11H)-one]",87,100,73
COc1cc(C(=O)N2CCC(N3CCN(C)CC3)CC2)ccc1Nc1ncc2c(n1)N(C)c1ccccc1C(=O)N2C [15 (LRRK2-IN-1)],96,97,100
